Series [1] can be described thus: Measurement of the size and zeta potential of liposomes (Zetasizer Nano ZS). The format is physicochemical. As to conditions: liposomal solution in water, 25° C. Here is the method: The cationic lipids were formulated in a liposomal solution by the method of hydration of a lipid film. Initially, a fraction of a concentrated solution of the cationic lipid is placed in a glass tube and evaporated to give a thin lipid film. 1 mL of water is then added to the film and the film is hydrated for 3 days at 4° C. The solution is then vortexed (1 min) and placed under ultrasound (30 to 60 min) at 45 kHz. Then 150 μL of the liposomal solution is diluted in 1.5 mL of sterile water. After filtration ([…]) of the liposomal solution, the size and the zeta potential of liposomes and lipoplexes are determined.
The size and zeta potential (ξ) of the liposomes and of the lipoplexes were measured with a Zetasizer Nano ZS (Malvern Instruments) at 25° C. after a suitable dilution of the formulations. For the measurements of the lipoplexes, each test used […] of plasmid DNA in water with the required amount of cationic lipid studied in order to form lipoplexes with charge ratios ranging from 0.5 to 8.0. For the measurements of the liposomes, a quantity of lipid equivalent to a mixture having a 1.0 charge ratio in water was used.

The nature of series [2]: Structural organisation study via 31P NMR (Hahn echo) of hydrated lipids. As to conditions: hydrated medium, ambient temperature. The format is physicochemical. Here is the method: A stock solution of a cationic lipid is prepared in the chloroform. A volume of stock solution corresponding to a weight in lipids between 50 mg and 100 mg is pipette into a haemolysis tube and the chloroform is evaporated under of flow of N2 in such a way as to obtain a lipid film. 500 μL of water is then added and the mixture is subjected to ultrasound until complete dispersion of the lipid film. The mixture is lysed for one night. A volume of distilled water is then added in order to obtain a solution with a concentration of 100 mg·mL^−1. In order to ensure the balance of the sample, three cycles −198° C./50° C. are carried out: the sample is placed at −198° C. (liquid nitrogen) for 5 min, then the sample is placed in a water bath at 50° C. for 30 min and is vortexed.
The NMR ^31P spectra were acquired with a Hahn echo sequence (90°-τ-180°-τ-acq). The acquisition parameters were as follows: spectral window of 200 KHz, a pulse π/2 with a duration of […], a recycling period of 5 s and an echo period of 40 μs. The number of acquisitions depends on the volume of the sample and the acquisition temperature, and is between 128 and 1700 scans. The temperature of the sample is balanced for 30 min before the start of the acquisition. Lorentzian noise is filtered over the entire spectral window before the Fourier transform on the top of the echo. […]

Consider one compound from patent US10676492B2, “Branched amphiphilic lipids” (UNIVERSITÉ DE BRETAGNE OCCIDENTALE, priority 2015, dated 2020).

For the compound `CCCCCCCC/C=C/CCCCCCCCOP(=O)(NCC[N+](C)(C)C)OCCCCCCCC/C=C/CCCCCCCC.[I-]` [Compound I-1], in series [1], the PdI is on record as 0.26, the “Size (nm)” value is reported as 94 nm and the “Zeta Potential (mV)” value is “+54 mV”. Moreover, the “structure of the supramolecular aggregates (self-organisation)” value in series [2] was “lamellar form”.
